In one experiment the target is DPP1 in HL-60 cells (Homo sapiens, UniProt P53634). Kind of experiment: DPP1 Cell IC50 assay. The class given is cell-based. Also on record: host or cells: HL-60 cells. Particulars: 60 min pre-incubation, H-Gly-Phe-AFC substrate, average of n runs, read-out: Avg. IC50 (DPP1 Cell IC50 value ranges). As to the method:
Example 99. DPP1 Cell IC50 assay
HL-60 cells (ATCC; Manassas, VA) were maintained in RPMI-1640 supplemented with 20% heat-inactivated FBS and 1× Antibiotic Antimycotic (Cytiva; Marlborough, MA). Media was changed every three to four days and cells were not allowed to exceed 1×10^6 cells per mL. Prior to assay, cells were collected by centrifugation at 500 rcf for 3 minutes, resuspended in PBS and counted. Cells were diluted in PBS to a concentration of 5×10^5 live cells per mL and transferred to black 96-well plates for assay, 60 μL per well. Test articles were diluted in PBS plus 0.5% DMSO, and 20 μL was added to each assay well. Compound was allowed to pre-incubate with cells with gentle shaking at 100 rpm for 60 minutes at 37° C. in a cell culture incubator maintained at 5% CO2, after which 20 μL of 500 μM H-Gly-Phe-AFC substrate (MP Biomedicals; Solon, OH) was added to each well. Plates were returned to the incubator with shaking at 100 rpm for 30 minutes, after which fluorescence was measured at Excitation/Emission 400/505 nm. % Inhibition was calculated from RFU values compared to control cell wells that received only PBS plus 0.5% DMSO. IC50 values for each compound were calculated via the XLFit (IDBS Version 5.3.1.3) Add-On to Microsoft Excel using the four parameter fit equation y=(A+((B−A)/(1+((C/x)^D)))), which appears as equation number 205 (4 Parameter Logistic Model or Sigmoidal Dose-Response Model) in XLFit. IC50 was defined as the compound concentration at which 50% of enzyme activity was inhibited when compared to the no-compound control.

In the next experiment the target is human DPP1 enzyme (Homo sapiens, UniProt P53634). In words: Human DPP1 Enzyme IC50 Assay. The experiment is classed as biochemical. The arrangement: was first proteolytically processed into its mature form using recombinant human cathepsin L; purchased R&D Systems. Particulars: activated recombinant human DPP1, 400 μM H-Gly-Arg-AMC, 10 minutes pre-incubation at 37° C., pH 6.0; average of n runs; read-out: Avg. IC50 (Human DPP1 enzyme IC50 value ranges). As to the method:
Example 97. Human DPP1 Enzyme IC50 Assay
Recombinant human DPP1 enzyme (R&D Systems; Minneapolis, MN) was first proteolytically processed into its mature form using recombinant human cathepsin L (R&D Systems) in a buffer consisting of 20 mM citric acid pH 4.5, 150 mM NaCl, 1 mM EDTA and 10 mM DTT. Test articles were applied to activated human DPP1 enzyme in Assay Buffer (25 mM MES pH 6.0, 50 mM NaCl, 5 mM DTT) in a total reaction volume of 125 μL. 25 μL of compound in Assay Buffer plus 5% DMSO was first added to 50 μL of activated human DPP1 enzyme at a concentration of 1 ng/μL and allowed to pre-incubate for 10 minutes at 37° C. after which 50 μL of 1000 μM H-Gly-Arg-AMC substrate (Bachem; St. Torrance, CA) was added, giving final substrate concentration of 400 μM and a final DMSO concentration of 1%. Substrate cleavage was measured for 90 minutes at 37° C., with fluorescence at Excitation/Emission 350/450 nm measured every 5 minutes. DPP1 concentration was interpolated based on its activity relative to a standard curve of activated human recombinant DPP1 enzyme. IC50 values for each compound were calculated via the XLFit (IDBS Version 5.3.1.3) Add-On to Microsoft Excel using the four parameter fit equation y={A+[(B−A)]/[1+((C/x)^D)]}, which appears as equation number 205 (4 Parameter Logistic Model or Sigmoidal Dose-Response Model) in XLFit. Default constraints were used for each Parameter. IC50 was defined as the compound concentration at which 50% of enzyme activity was inhibited when compared to the no-compound control.

human DPP1 enzyme, sequence (P53634 25-134 limits assumed): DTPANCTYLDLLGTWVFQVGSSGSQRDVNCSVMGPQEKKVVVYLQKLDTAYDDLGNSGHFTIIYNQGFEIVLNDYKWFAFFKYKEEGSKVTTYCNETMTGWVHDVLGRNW
human DPP1 enzyme, sequence (P53634 231-394 limits assumed): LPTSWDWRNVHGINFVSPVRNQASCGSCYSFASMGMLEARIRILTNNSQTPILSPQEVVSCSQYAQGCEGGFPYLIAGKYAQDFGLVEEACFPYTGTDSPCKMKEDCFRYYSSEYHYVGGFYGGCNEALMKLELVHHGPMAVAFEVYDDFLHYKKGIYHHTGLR
human DPP1 enzyme, sequence (P53634 395-463 limits assumed): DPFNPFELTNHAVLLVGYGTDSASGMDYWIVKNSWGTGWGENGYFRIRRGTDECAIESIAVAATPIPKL
DPP1 in HL-60 cells, sequence (P53634 25-463): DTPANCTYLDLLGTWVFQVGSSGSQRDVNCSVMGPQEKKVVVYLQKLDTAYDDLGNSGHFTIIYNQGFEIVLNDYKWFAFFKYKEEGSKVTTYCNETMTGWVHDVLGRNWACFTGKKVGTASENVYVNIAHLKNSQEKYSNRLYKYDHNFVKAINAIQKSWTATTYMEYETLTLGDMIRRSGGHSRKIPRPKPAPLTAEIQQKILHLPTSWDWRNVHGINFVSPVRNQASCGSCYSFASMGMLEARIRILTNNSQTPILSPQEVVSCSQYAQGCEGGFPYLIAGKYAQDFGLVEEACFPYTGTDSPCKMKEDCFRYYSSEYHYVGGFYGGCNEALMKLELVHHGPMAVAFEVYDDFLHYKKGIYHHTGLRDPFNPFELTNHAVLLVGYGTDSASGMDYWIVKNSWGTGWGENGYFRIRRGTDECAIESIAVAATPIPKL

On to `N#C[C@H](Cc1ccc(-c2ccc3c(c2)C2(CCNCC2)CC3=O)cc1)NC(=O)[C@@H]1CNCCCO1` [Compound 30, (2S)—N-[(1S)-1-cyano-2-(4-{3-oxo-2H-spiro[indene-1,4′-piperidin]-6-yl}phenyl)ethyl]-1,4-oxazepane-2-carboxamide], for which the IC50 on DPP1 in HL-60 cells was more than 2.5 nM; at human DPP1 enzyme, 5 to 15 nM.
The matching figures for `COc1ccc(-c2ccc(C[C@@H](C#N)NC(=O)[C@@H]3CNCCCO3)cc2)cc1-n1cnnc1` [Compound 31, (2S)—N-[(1S)-1-cyano-2-[4′-methoxy-3′-(1,2,4-triazol-4-yl)-[1,1′-biphenyl]-4-yl]ethyl]-1,4-oxazepane-2-carboxamide]: more than 2.5 nM and more than 15 nM.
The matching figures for `CN1C(=O)C2(CCN(C3CCOCC3)CC2)c2cc(-c3ccc(C[C@@H](C#N)NC(=O)[C@@H]4CNCCCO4)cc3)ccc21` [Compound 35]: more than 2.5 nM and more than 15 nM.
For `N#C[C@H](Cc1ccc(-c2ccc3c(c2)CCS3)cc1)NC(=O)[C@@H]1CNCCCO1` [Compound A4, (2S)—N-[(1S)-1-cyano-2-[4-(2,3-dihydro-1-benzothiophen-5-yl)phenyl]ethyl]-1,4-oxazepane-2-carboxamide] the same measures were more than 2.5 nM and more than 15 nM.
`N#C[C@H](Cc1ccc(-c2nc3c(s2)CS(=O)(=O)CC3)cc1)NC(=O)[C@@H]1CNCCCO1` [Compound A6]: the values for the IC50 at DPP1 in HL-60 cells and on human DPP1 enzyme were more than 2.5 nM and more than 15 nM, respectively.
For `N#C[C@H](Cc1ccc(-c2cc3ccncc3[nH]2)cc1)NC(=O)[C@@H]1CNCCCO1` [Compound A7, (2S)—N-[(1S)-1-cyano-2-(4-{1H-pyrrolo[2,3-c]pyridin-2-yl}phenyl)ethyl]-1,4-oxazepane-2-carboxamide] the same measures were more than 2.5 nM and more than 15 nM.
The matching figures for `N#C[C@H](Cc1ccc(-c2cnc3c(c2)COCCN3)cc1)NC(=O)[C@@H]1CNCCCO1` [Compound A9, (2S)—N-[(1S)-1-cyano-2-(4-{1H,2H,3H,5H-pyrido[2,3-e][1,4]oxazepin-7-yl}phenyl)ethyl]-1,4-oxazepane-2-carboxamide]: more than 2.5 nM and more than 15 nM.
Turning to `N#C[C@H](Cc1ccc(-c2cc3n(c2)CCCNC3=O)cc1)NC(=O)[C@@H]1CNCCCO1` [Compound A12, (2S)—N-[(1S)-1-cyano-2-(4-{1-oxo-2H,3H,4H,5H-pyrrolo[1,2-a][1,4]diazepin-8-yl}phenyl)ethyl]-1,4-oxazepane-2-carboxamide], the IC50 at DPP1 in HL-60 cells is more than 2.5 nM; at human DPP1 enzyme it was more than 15 nM.
The matching figures for `Cn1c(=O)ccc2ncc(-c3ccc(C[C@@H](C#N)NC(=O)[C@@H]4CNCCCO4)cc3)cc21` [Compound A18, (2S)—N-[(1S)-1-cyano-2-[4-(5-methyl-6-oxo-1,5-naphthyridin-3-yl)phenyl]ethyl]-1,4-oxazepane-2-carboxamide]: more than 2.5 nM and more than 15 nM.
The matching figures for `Cc1c(C(N)=O)sc2ncc(-c3ccc(C[C@@H](C#N)NC(=O)[C@@H]4CNCCCO4)cc3)cc12` [Compound A19, (2S)—N-[(1S)-2-(4-{2-carbamoyl-3-methylthieno[2,3-b]pyridin-5-yl}phenyl)-1-cyanoethyl]-1,4-oxazepane-2-carboxamide]: more than 2.5 nM and more than 15 nM.
For `N#C[C@H](Cc1ccc(-c2ccc3c(c2)N(C(N)=O)CCC3)cc1)NC(=O)[C@@H]1CNCCCO1` [Compound A20, 7-{4-[(2S)-2-cyano-2-[(2S)-1,4-oxazepan-2-ylformamido]ethyl]phenyl}-3,4-dihydro-2H-quinoline-1-carboxamide] the same measures were more than 2.5 nM and more than 15 nM.
As to `CO[C@@H]1CCNC[C@@H](C(=O)N[C@H](C#N)Cc2ccc(-c3cc4c(C)nc(C)cn4c3)cc2)OC1` [Compound A32, (2S,7R)—N-[(1S)-1-cyano-2-(4-{1,3-dimethylpyrrolo[1,2-a]pyrazin-7-yl}phenyl)ethyl]-7-methoxy-1,4-oxazocane-2-carboxamide], the IC50 at DPP1 in HL-60 cells was 1 to 2.5 nM; on human DPP1 enzyme, more than 15 nM.
The matching figures for `CO[C@@H]1CCNC[C@@H](C(=O)N[C@H](C#N)Cc2ccc(-c3ccc4c(n3)CCCN4)cc2)OC1` [Compound A33, (2S,7R)—N—((S)-1-cyano-2-(4-(5,6,7,8-tetrahydro-1,5-naphthyridin-2-yl)phenyl)ethyl)-7-methoxy-1,4-oxazocane-2-carboxamide]: more than 2.5 nM and less than 5 nM.
For `CO[C@@H]1CCNC[C@@H](C(=O)N[C@H](C#N)Cc2ccc(-c3cc4c(C)nc(C)cn4c3)s2)OC1` [Compound A34, (2S,7R)—N-[(1S)-1-cyano-2-(5-{1,3-dimethylpyrrolo[1,2-a]pyrazin-7-yl}thiophen-2-yl)ethyl]-7-methoxy-1,4-oxazocane-2-carboxamide] the same measures were 1 to 2.5 nM and more than 15 nM.
On to `CO[C@@H]1CCNC[C@@H](C(=O)N[C@H](C#N)Cc2ccc(-c3cc4c(C)nc(C)cn4c3)c(F)c2)OC1` [Compound A35, (2S,7R)—N-[(1S)-1-cyano-2-(4-{1,3-dimethylpyrrolo[1,2-a]pyrazin-7-yl}-3-fluorophenyl)ethyl]-7-methoxy-1,4-oxazocane-2-carboxamide], for which the IC50 lay within 1 to 2.5 nM at DPP1 in HL-60 cells and 5 to 15 nM at human DPP1 enzyme.
The matching figures for `CO[C@@H]1CCNC[C@@H](C(=O)N[C@H](C#N)Cc2ncc(-c3ccc4c(F)nn(C)c4c3)s2)OC1` [Compound A36, (2S,7R)—N-[(1S)-1-cyano-2-[5-(3-fluoro-1-methylindazol-6-yl)-1,3-thiazol-2-yl]ethyl]-7-methoxy-1,4-oxazocane-2-carboxamide]: more than 2.5 nM and more than 15 nM.
Turning to `CO[C@@H]1CCNC[C@@H](C(=O)N[C@H](C#N)Cc2ncc(-c3ccc4c(n3)CCCN4)s2)OC1` [Compound A37, (2S,7R)—N—((S)-1-cyano-2-(5-(5,6,7,8-tetrahydro-1,5-naphthyridin-2-yl)thiazol-2-yl)ethyl)-7-methoxy-1,4-oxazocane-2-carboxamide], the IC50 on DPP1 in HL-60 cells was more than 2.5 nM; at human DPP1 enzyme, more than 15 nM.
For the compound `CO[C@@H]1CCNC[C@@H](C(=O)NC(C#N)Cc2cnc(-c3ccc4c(n3)CCCN4)s2)OC1` (stereo partly drawn) [Compound A39, (2S,7R)—N-{1-cyano-2-[2-(5,6,7,8-tetrahydro-1,5-naphthyridin-2-yl)-1,3-thiazol-5-yl]ethyl}-7-methoxy-1,4-oxazocane-2-carboxamide], the IC50 at DPP1 in HL-60 cells is more than 2.5 nM; on human DPP1 enzyme, more than 15 nM.
On to `CN1CCCc2ncc(-c3ccc(C[C@@H](C#N)NC(=O)[C@@H]4CNCCCO4)cc3)cc21` [Compound A40, (2S)—N-[(1S)-1-cyano-2-[4-(5-methyl-7,8-dihydro-6H-1,5-naphthyridin-3-yl)phenyl]ethyl]-1,4-oxazepane-2-carboxamide], for which the IC50 on DPP1 in HL-60 cells was more than 2.5 nM; on human DPP1 enzyme, more than 15 nM.
The matching figures for `N#C[C@H](Cc1ccc(-c2cnc3c(c2)NCCC3)cc1)NC(=O)[C@@H]1CNCCCO1` [Compound A41, (2S)—N-[(1S)-1-cyano-2-[4-(5,6,7,8-tetrahydro-1,5-naphthyridin-3-yl)phenyl]ethyl]-1,4-oxazepane-2-carboxamide]: more than 2.5 nM and more than 15 nM.
For `CO[C@H]1CCO[C@H](C(=O)N[C@H](C#N)Cc2ccc(-c3cc4c(C)nc(C)cn4c3)cc2)CNC1` [Compound A42, (2S,6S)—N-[(1S)-1-cyano-2-(4-{1,3-dimethylpyrrolo[1,2-a]pyrazin-7-yl}phenyl)ethyl]-6-methoxy-1,4-oxazocane-2-carboxamide] the same measures were 1 to 2.5 nM and more than 15 nM.

Usually IC50 stands for the concentration that gives 50% inhibition.
